One assay relates to γH2AX. As to the kind of experiment: γH2AX immunoblot of cellular extracts, IMGN853 and carboplatin (FIG. 9C). It counts as cell-based. To be noted: carboplatin 40 μM, IMGN853 16 nM, alone or combined, 6 hours, then 18 hours drug-free medium. The source says: Cellular extracts were immunoblotted for γH2AX or actin (loading control) as indicated.
A general note: In western blotting, separated proteins are transferred to a membrane and probed.

Assay [1] relates to OV90 serous ovarian tumor xenografts. To be noted: IMGN853 5 mg/kg 1× and/or bevacizumab 5 mg/kg 1×.
Experimental: Mice were randomized into groups (n=6 per group) by tumor volume and subsequently dosed on Day 14 post-inoculation.
Tumor volumes were measured one to two times weekly in three dimensions using a caliper. The tumor volume was expressed in mm^3 using the formula V=Length×Width×Height×½ (Tomayko and Reynolds, Cancer Chemother. Pharmacol. 24:148-54 (1989)) Body weights were measured twice per week as an index of toxicity. Activity was assessed as described in Bissery et al. (1991).
The test system of the next assay is OV-90 xenografts. As to the kind of experiment: OV-90 tumors harvested 4 days post-dosing: histology, γH2AX, CD31, anti-maytansine (FIGS. 12A-12C). The class given is in vivo, mice. To be noted: IMGN853 2.5 mg/kg and/or bevacizumab 5 mg/kg. On the procedure: Original magnification, 4×; scale bars, 2 mm (for Combination panel, 600 μm).
For each group, representative micrographs from one of three tumors are shown. Original magnification, 20×; scale bars, 200 μm.
Next, as a pharmacodynamic readout, tumor γH2AX levels were measured by immunoblotting (FIG. 12B).
While genotoxic insults are the primary inducers of γH2AX, accumulation of this protein can also occur in response to hypoxia. […] In order to examine treatment-related effects on microvessels, immunohistochemical staining with the endothelial cell marker CD31 was performed (FIG. 12C, upper panel).

For assay [2], the system named is ST088 human epithelial ovarian cancer (EOC) patient-derived tumor xenografts. As to the kind of experiment: Antitumor activity of IMGN853, bevacizumab, paclitaxel and combinations in ST088 tumor model (Example 6). The class given is in vivo, SCID mice. To be noted: QWx2: IMGN853 5 mg/kg, bevacizumab 5 mg/kg, paclitaxel 10 mg/kg. On the procedure:
Tumor volumes were measured twice weekly in three dimensions using a caliper.

Data on one substance can be found in US10172875B2, “Therapeutic combinations comprising anti-FOLR1 immunoconjugates” (ImmunoGen, Inc., priority 2015, dated 2019).

As a reminder, the T/C is the result in the treated group divided by that in the control group, in per cent. With IMGN853, the γH2AX expression result with γH2AX is “induced γH2AX expression in IGROV-1 cells and to levels higher than those seen following carboplatin exposure alone”. Also, in assay [1], the T/C was 36%, the antitumor activity rating result is reported as “active” and the “tumor free survivors (TFS)” value was 0/5. In addition, in assay [1] (responders/animals), the CR is recorded as 1/5. The “tumor γH2AX levels by immunoblotting” value in the assay with OV-90 xenografts (4 days post-dosing) is on record as “robustly induced”. For the same substance, the “tumor microvessels, CD31 immunohistochemical staining” value with OV-90 xenografts (day 4) is reported as “numerous large vessels”. The antitumor activity rating entry in assay [2] is on record as “active”. In addition, the T/C in assay [2] (alone or combined) was determined as 31%. Also, in assay [2] (responders/animals), the CR is 0/8 and the PR is given as 0/8.
